# Assay results from US20230348564A1, “ANTI-CANCER PROTEINS” (UNICHEM LABORATORIES LTD, priority 2020, published 2023).
# Legend:
# [1] = system: PANC-1; assay: JC-1 assay, mitochondrial membrane depolarization; format: cell-based, Human; settings: 16h
# Method: To evaluate the in vitro apoptotic effect of recombinant lectin having the amino acid sequence of SEQ ID NO.2 in MDA-MB-231 (breast cancer) and PANG-1 (pancreatic cancer) cell line by JC-1 assay, an increase in mitochondrial membrane depolarization was used as a marker of apoptosis. […] 2 using JC-1 dye based method. […] The cell lines were grown in Dulbecco's Modified Eagle Medium (DMEM)+10% heat inactivated FBS at 37° C. (95% humidity and 5% CO2). […] Recombinant lectin having the amino acid sequence of SEQ ID NO. 2 was diluted in serum free medium. Doxorubicin was used as positive control and stock solution was prepared in dimethyl sulfoxide (DMSO). […] The cells were then incubated overnight under growth conditions to allow the cell recovery and exponential growth. Cells were treated with the recombinant lectin of SEQ ID NO. […] Following respective treatments the cells in the above plate were incubated for 16h in CO2 incubator at 37° C., 5% CO2 and 95% humidity.
# After 16h of incubation, the supernatants were discarded and 100 μL of JC1-dye solution (prepared by diluting 1 mM DMSO stock in to 10 μM in 1×PBS) was added to each well. The cells were then incubated with the dye in CO2 incubator at 37° C. for 15 min. After 15 min of incubation, the supernatant was removed and the cells were washed twice with 1×PBS and then 100 μL of 1×PBS was added to each well. Red fluorescence (excitation 550 nm, emission 600 nm) and green fluorescence (excitation 485 nm, emission 535 nm) were measured using Biotek Synergy FIT plate reader. The mitochondrial membrane potential […] was calculated as the ratio of intensity of red fluorescence to intensity of green fluorescence described as follows:
# ΔΨM=Intensity of red fluorescence/Intensity of green fluorescence
# The percentage decrease of Red fluorescence/Green fluorescence corresponding to each treatment was calculated using the following formula:
# Where X=Δψm corresponding to treated cells R=ΔΨM corresponding to control wells.
# [2] = system: Neuroblastoma (SH-SY5Y); assay: cytotoxicity in Brain Tumor Cell lines by MTT assay; format: cell-based, Human; settings: 0.1 Mm-100 μM, 72 h
# Method: (§1) The SEQ ID NO. […] Untreated cells were used as control. […] Cells were incubated for 3 h at 37° C.
# [3] = system: Glioblastoma (LN-18); assay: as above; format: cell-based, Human; settings: 0.1 Mm-100 μM, 72 h
# Method: as §1
# [4] = system: Notch-1; assay: biomarker levels in IOMM-Lee by ELISA; format: cell-based, Human; settings: 1 μM
# Source text: Effect of SEQ ID No 2 on the expression of following 7 biomarkers were estimated in Human Meningioma cell line (IOMM-Lee) using multiplex analysis: TNF-alpha, VEGF, VEGFR2, HGF, HGFR/c-MET, PDGF-BB, and Contactin-1. Levels of another marker, Notch-1 were also estimated by ELISA in the same cell line. These 8 biomarkers play very crucial role in the pathogenesis and progression of Brain Tumor. […] Supernatants were collected and the levels of these 8 markers were investigated.
# [5] = system: Glioblastoma (U251MG); assay: cytotoxicity in Brain Tumor Cell lines by MTT assay; settings: 0.1 Mm-100 μM, 72 h
# [6] = system: MDA-MB-231; assay: Annexin-V staining (flow cytometry); format: cell-based, Human; settings: 24 h
# Method: (§2) The cell lines were maintained in DMEM+10% FBS (heat inactivated) at 37° C. with 5% CO2, and 95% humidity. Antibiotics Penicillin (100 U/mL) and Streptomycin (100 μg/mL) were added to the medium.
# (§3) The stock solution of recombinant lectin having the amino acid sequence of SEQ ID NO. […] Doxorubicin was used as positive control and stock solution was prepared in DMSO.
# (§4) Cells were counted using hemocytometer and plated in culture plates at the density of 0.4×10^6 cells/well in DMEM+10% FBS in 6-well plates. Cells were incubated overnight to allow the cell recovery and exponential growth. Following overnight incubation, cells were treated with Lectin having the amino acid sequence of SEQ ID NO. 2 in DMEM+0% FBS at concentrations ranging from 2.5 μg/mL to 80 μg/mL. Untreated cells were included as Control group for sample. Cells treated with Doxorubicin were included as Positive Control group. DMSO treated cells were included as control group for Doxorubicin. After treatment, cells were incubated for a time period of 24 h.
# (§5) Following incubation, the pro-apoptotic effect was estimated using Annexin assay kit as follows: Annexin reagent contains Annexin-V+7-AAD stain, which differentially labels apoptotic cells in different phases. Four populations of cells can be determined from the flow cytometric plots as follows: • a) Upper Left (UL)—7-AAD(+)/Annexin(−) or Necrotic cells • b) Upper Right (UR)—7-AAD(+)/Annexin(+) or Late apoptotic cells • c) Lower Left (LL)—7-AAD(−)/Annexin(−) or Viable/non-apoptotic cells • d) Lower Right (LR)—7-AAD(−)/Annexin(+) or Early apoptotic cells
# (§6) Cells were gently harvested into pre-labeled sterile centrifuge tubes and centrifuged at 300×g for 5-7 min. Supernatant were discarded and the pellet was resuspended in 200 μl of fresh culture medium.
# (§7) 100 μl of cell suspension was transferred into pre-labeled sterile centrifuge tubes.
# (§8) 100 μl of Annexin-V reagent was added to each tube and incubated for 30 min at RT in dark.
# (§9) Cells stained for Annexin-V were then transferred into 96-well plates and acquired on flow cytometer (Guava technologies). Percentage of cells in early apoptotic, late apoptotic and necrotic phase were determined.
# (§10) Fold increase in apoptotic cells (treated with Test Items) was determined as compared to Control (untreated cells).
# [7] = system: PANC-1; assay: Annexin-V staining (flow cytometry); format: cell-based, Human; settings: 24 h
# Method: as §2, §3, §4, §5, §6, §7, §8, §9, §10
structure (smiles),measurement,setting,value
"COc1cccc2c1C(=O)c1c(O)c3c(c(O)c1C2=O)C[C@@](O)(C(=O)CO)C[C@@H]3O[C@H]1C[C@H](N)[C@H](O)[C@H](C)O1 [Doxorubicin, reference compound]",Average Green fluorescence,[1]; 0.1 μM,258.5
same,Average Red fluorescence,[1]; 0.1 μM,653.7
same,Percentage decrease in MMP (%),[1]; 0.1 μM,−21.0%
same,Average Green fluorescence,[1]; 1 μM,282.3
same,Average Red fluorescence,[1]; 1 μM,555.3
same,Percentage decrease in MMP (%),[1]; 1 μM,5.9%
same,Average Green fluorescence,[1]; 10 μM,208.3
same,Average Red fluorescence,[1]; 10 μM,350.0
same,Percentage decrease in MMP (%),[1]; 10 μM,19.6%
same,Average Green fluorescence,[1]; 25 μM,186.3
same,Average Red fluorescence,[1]; 25 μM,283.0
same,Percentage decrease in MMP (%),[1]; 25 μM,27.3%
same,Average Green fluorescence,[1]; 50 μM,161.7
same,Average Red fluorescence,[1]; 50 μM,192.5
same,Percentage decrease in MMP (%),[1]; 50 μM,43.0%
same,% of cytotoxicity,[2],21.7%-61.7%
same,% of cytotoxicity,[3],6.5%-47.7%
same,Percentage inhibition on levels of Notch-1,[4],8%
same,% of cytotoxicity,[5],11.2%-78.6%
same,"% Population of cells, LL Annex− 7AAD− Viable",[6]; 10 μM,0.7%
same,"% Population of cells, LR Annex+ 7AAD− Early apoptotic",[6]; 10 μM,6.8%
same,"% Population of cells, UL Annex− 7AAD+ Necrotic",[6]; 10 μM,0.0%
same,"% Population of cells, UR Annex+ 7AAD+ Late apoptotic",[6]; 10 μM,92.5%
same,"% Population of cells, LL Annex− 7AAD− Viable",[6]; 100 μM,0.0%
same,"% Population of cells, LR Annex+ 7AAD− Early apoptotic",[6]; 100 μM,0.0%
same,"% Population of cells, UL Annex− 7AAD+ Necrotic",[6]; 100 μM,0.0%
same,"% Population of cells, UR Annex+ 7AAD+ Late apoptotic",[6]; 100 μM,100.0%
same,"% Population of cells, LL Annex− 7AAD− Viable",[7]; 10 μM,25.6%
same,"% Population of cells, LR Annex+ 7AAD− Early apoptotic",[7]; 10 μM,6.0%
same,"% Population of cells, UL Annex− 7AAD+ Necrotic",[7]; 10 μM,0.5%
same,"% Population of cells, UR Annex+ 7AAD+ Late apoptotic",[7]; 10 μM,67.9%
same,"% Population of cells, LL Annex− 7AAD− Viable",[7]; 100 μM,1.3%
same,"% Population of cells, LR Annex+ 7AAD− Early apoptotic",[7]; 100 μM,1.9%
same,"% Population of cells, UL Annex− 7AAD+ Necrotic",[7]; 100 μM,0.1%
same,"% Population of cells, UR Annex+ 7AAD+ Late apoptotic",[7]; 100 μM,96.6%
